Results from ChEMBL document CHEMBL1201862, “PubChem BioAssay data set” (2004).
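Following 48 hours of exposure in 96-well plates, responses at five concentrations were used to interpolate endpoints linearly. Abbreviation: GI50, concentration required for 50% inhibition of growth.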 Active and inactive are the calls of the source. Cut-off read from the data, not from the text of the source: active = GI50 up to about 1.1 µM and inactive = higher.

Experiments:
Assay in all cases: NCI tumour cell line growth inhibition, 48 h
A549 = tested on: A549
BT-549 = tested on: BT-549
CCRF-CEM = tested on: CCRF-CEM
HCT-116 = tested on: HCT-116
HOP-92 = tested on: HOP-92
HT-29 = tested on: HT-29
IGROV-1 = tested on: IGROV-1
K562 = tested on: K562
LOX IMVI = tested on: LOX IMVI
M14 = tested on: M14
MCF7 = tested on: MCF7
MDA-N = tested on: MDA-N
NCI-H23 = tested on: NCI-H23
NCI/ADR-RES = tested on: NCI/ADR-RES
SF-539 = tested on: SF-539
SNB-75 = tested on: SNB-75
UACC-62 = tested on: UACC-62
Hs-578T = tested on: Hs-578T
RPMI-8226 = tested on: RPMI-8226
SK-MEL-2 = tested on: SK-MEL-2

SMILES	GI50 (A549)	GI50 (BT-549)	GI50 (CCRF-CEM)	GI50 (HCT-116)	GI50 (HOP-92)	GI50 (HT-29)	GI50 (IGROV-1)	GI50 (K562)	GI50 (LOX IMVI)	GI50 (M14)	GI50 (MCF7)	GI50 (MDA-N)	GI50 (NCI-H23)	GI50 (NCI/ADR-RES)	GI50 (SF-539)	GI50 (SNB-75)	GI50 (UACC-62)	GI50 (Hs-578T)	GI50 (RPMI-8226)	GI50 (SK-MEL-2)
c1ccc2c(c1)SCCCSCCCS2	> 100 µM (inactive)	> 100 µM (inactive)	> 100 µM (inactive)	63.4 µM (inactive)	60.1 µM (inactive)	> 10 µM (inactive)	> 100 µM (inactive)	> 100 µM (inactive)	> 100 µM (inactive)	> 100 µM (inactive)	> 100 µM (inactive)	> 100 µM (inactive)	> 100 µM (inactive)	> 100 µM (inactive)	> 100 µM (inactive)	> 100 µM (inactive)	> 100 µM (inactive)			
CC1=C(C(=O)Nc2ccccc2)C(c2ccc(C3C(C(=O)Nc4ccccc4)=C(C)NC(C)=C3C(=O)Nc3ccccc3)cc2)C(C(=O)Nc2ccccc2)=C(C)N1	8.05 µM (inactive)	2.55 µM (inactive)	1.58 µM (inactive)	2 µM (inactive)	3.51 µM (inactive)	1.85 µM (inactive)	2.52 µM (inactive)	2.67 µM (inactive)	1.61 µM (inactive)	2.5 µM (inactive)	2.86 µM (inactive)	3.23 µM (inactive)	2.86 µM (inactive)		3.56 µM (inactive)	8.2 µM (inactive)	1.67 µM (inactive)	2.88 µM (inactive)	2.61 µM (inactive)	2.07 µM (inactive)
Nc1nccc2c1ncn2C1C=C(CO)C(O)C1O (stereo not given)	98.4 µM (inactive)	83.2 µM (inactive)	2.76 µM (inactive)	1.28 µM (inactive)	70.1 µM (inactive)	6.37 µM (inactive)	> 95.5 µM (inactive)	1.86 µM (inactive)	27.5 µM (inactive)	70 µM (inactive)	4.29 µM (inactive)	2.99 µM (inactive)	68.7 µM (inactive)	7.05 µM (inactive)	11.8 µM (inactive)	62.1 µM (inactive)	11.5 µM (inactive)		6.31 µM (inactive)	91.6 µM (inactive)
COC(=O)CCC1(C)C2CCC1/C(=N/O)C2 (stereo not given)	> 100 µM (inactive)	> 100 µM (inactive)	> 100 µM (inactive)	> 100 µM (inactive)		> 100 µM (inactive)	> 100 µM (inactive)	> 100 µM (inactive)		> 100 µM (inactive)	> 100 µM (inactive)	> 100 µM (inactive)	> 100 µM (inactive)	> 100 µM (inactive)		> 100 µM (inactive)	> 100 µM (inactive)	> 100 µM (inactive)	> 100 µM (inactive)	> 100 µM (inactive)
COC(=O)C1C(=O)CC(C)(O)C(C(=O)OC)C1c1ccc(N(C)C)cc1 (stereo not given)	> 100 µM (inactive)	> 100 µM (inactive)	> 100 µM (inactive)	8.67 µM (inactive)	> 100 µM (inactive)	> 100 µM (inactive)	> 100 µM (inactive)	> 100 µM (inactive)	11.6 µM (inactive)		> 100 µM (inactive)	> 100 µM (inactive)	> 100 µM (inactive)	> 100 µM (inactive)		> 100 µM (inactive)	> 100 µM (inactive)			> 100 µM (inactive)
Cc1ccc(N2C(=O)C=C(C3=C(O)C(=O)N(c4ccc(C)cc4)C3=O)C2=O)cc1	> 100 µM (inactive)	> 100 µM (inactive)	> 100 µM (inactive)	> 100 µM (inactive)	46.5 µM (inactive)	> 100 µM (inactive)	> 100 µM (inactive)	> 100 µM (inactive)	> 100 µM (inactive)	> 100 µM (inactive)	> 100 µM (inactive)	> 100 µM (inactive)	> 100 µM (inactive)	> 100 µM (inactive)		42.3 µM (inactive)	> 100 µM (inactive)		> 100 µM (inactive)	
O=c1cc(-c2ccccc2)nc(-n2[nH]c3c(c2=O)CCCC3)[nH]1	4.35 µM (inactive)	9.38 µM (inactive)	0.769 µM (active)	2.7 µM (inactive)	2.85 µM (inactive)	4.31 µM (inactive)	4.53 µM (inactive)	2.83 µM (inactive)		5.68 µM (inactive)	3.37 µM (inactive)	7.29 µM (inactive)	7.33 µM (inactive)		4.98 µM (inactive)	3.13 µM (inactive)	2.32 µM (inactive)	23.4 µM (inactive)	4.17 µM (inactive)	2.36 µM (inactive)
COc1cc(OC)c2c3c(OC)cc(OC)c4c(=O)c(O)c(C[C@@H](C)O)c(c5c(C[C@@H](C)O)c(O)c(=O)c1c25)c43	36.7 µM (inactive)	18.7 µM (inactive)		16 µM (inactive)	14.5 µM (inactive)	18.6 µM (inactive)	16.6 µM (inactive)		12.6 µM (inactive)	17.4 µM (inactive)	21.2 µM (inactive)	18.7 µM (inactive)	19 µM (inactive)	30.3 µM (inactive)	24.8 µM (inactive)	14.2 µM (inactive)				19 µM (inactive)
O=C(C/N=C(\CN(c1ccccc1)c1ccccc1)Oc1c([N+](=O)[O-])cc([N+](=O)[O-])cc1[N+](=O)[O-])N1CCNCC1	> 100 µM (inactive)	> 100 µM (inactive)	> 100 µM (inactive)	> 100 µM (inactive)	67.5 µM (inactive)	> 100 µM (inactive)	56.8 µM (inactive)	> 100 µM (inactive)		> 100 µM (inactive)	> 100 µM (inactive)	> 100 µM (inactive)	> 100 µM (inactive)		> 100 µM (inactive)	10.5 µM (inactive)	43 µM (inactive)	25.4 µM (inactive)	> 100 µM (inactive)	
CC(=O)OC12c3ccccc3C(c3ccccc31)C1C(=O)N(N=C(C)C)C(=O)C12 (stereo not given)	> 100 µM (inactive)	> 100 µM (inactive)	> 100 µM (inactive)	> 100 µM (inactive)		> 100 µM (inactive)	> 100 µM (inactive)	> 100 µM (inactive)	> 100 µM (inactive)	> 100 µM (inactive)	> 100 µM (inactive)	> 100 µM (inactive)	> 100 µM (inactive)	> 100 µM (inactive)	> 100 µM (inactive)	51.9 µM (inactive)	> 100 µM (inactive)	> 100 µM (inactive)	> 100 µM (inactive)	
O=C(NCc1ccccc1)c1nn[nH]c1O	> 100 µM (inactive)	> 100 µM (inactive)	> 100 µM (inactive)	> 100 µM (inactive)		> 100 µM (inactive)	> 100 µM (inactive)	> 100 µM (inactive)		> 100 µM (inactive)	> 100 µM (inactive)	> 100 µM (inactive)	> 100 µM (inactive)	> 100 µM (inactive)		> 100 µM (inactive)	> 100 µM (inactive)	> 100 µM (inactive)	> 100 µM (inactive)	> 100 µM (inactive)
